Test results from ChEMBL document CHEMBL5042519, “Design and synthesis of marine sesterterpene analogues as novel estrogen receptor α degraders for breast cancer treatment” (Eur J Med Chem, 2022).
The source made the active and inactive calls. The calls are words filed in the database; no cut-off is given here.

How the values were obtained:
[1] = test system: MDA-MB-231; assay: Antiproliferative activity against human MDA-MB-231 cells assessed as reduction in cell viability after 48 hrs by MTT assay; settings: MDA-MB-231, 48 h
[2] = target: T1, Estrogen receptor (Homo sapiens) (UniProt P03372); assay: Induction of ERalpha degradation in human MCF7 cells assessed as decrease in ERalpha protein expression at 1 uM incubated for 24 hrs by Western blot analysis; format: cell-based
T1 sequence (whole entry): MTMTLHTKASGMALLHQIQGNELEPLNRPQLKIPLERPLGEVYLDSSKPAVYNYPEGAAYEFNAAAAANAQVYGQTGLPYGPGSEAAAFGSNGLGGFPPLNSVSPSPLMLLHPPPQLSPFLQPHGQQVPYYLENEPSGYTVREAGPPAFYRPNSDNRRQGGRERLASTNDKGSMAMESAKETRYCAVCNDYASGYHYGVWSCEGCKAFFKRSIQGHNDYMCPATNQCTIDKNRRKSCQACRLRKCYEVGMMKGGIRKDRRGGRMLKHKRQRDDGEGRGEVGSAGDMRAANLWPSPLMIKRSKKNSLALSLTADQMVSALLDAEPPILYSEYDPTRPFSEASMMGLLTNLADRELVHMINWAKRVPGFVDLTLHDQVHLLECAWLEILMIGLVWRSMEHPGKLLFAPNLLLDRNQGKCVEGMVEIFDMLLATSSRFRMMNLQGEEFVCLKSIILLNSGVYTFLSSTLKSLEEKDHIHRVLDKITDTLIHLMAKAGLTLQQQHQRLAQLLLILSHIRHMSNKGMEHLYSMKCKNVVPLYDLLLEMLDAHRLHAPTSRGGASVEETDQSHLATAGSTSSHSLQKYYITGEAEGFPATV

[3] = test system: MCF7; assay: Antiproliferative activity against human MCF7 cells assessed as reduction in cell viability after 48 hrs by MTT assay; format: functional, cell-based; settings: MCF7, 48 h
[4] = Metabolic stability in rat liver microsomes assessed as assessed as intrinsic clearance incubated for 60 mins in presence of NADPH by UPLC-MS analysis; format: ADME, Microsome; settings: read-out: CLH
[5] = Selectivity index, ratio of IC50 for antiproliferative activity against human MCF-10A cells to IC50 for antiproliferative activity against human MDA-MB-231 cells by MTT assay; format: toxicity, cell-based; settings: MCF-10A cells versus MDA-MB-231 cells, read-out: Ratio IC50
[6] = Resistance index, ratio of IC50 for antiproliferative activity against human MCF7/ADR cells to IC50 for antiproliferative activity against human MCF7 cells; format: functional
[7] = Metabolic stability in rat plasma assessed as parent compound remaining incubated for 60 mins in presence of NADPH by UPLC-MS analysis; format: ADME, cell-free; settings: read-out: Stability
[8] = Antiproliferative activity against human MCF-10A cells assessed as reduction in cell viability after 48 hrs by MTT assay; format: toxicity, cell-based
[9] = test system: MCF7; assay: Antiproliferative activity against human MCF7/ADR cells assessed as reduction in cell viability after 48 hrs by MTT assay; format: functional, cell-based; settings: MCF7, 48 h

Question: Which results are given for `CC(C)=C/C=C\[C@H](C)[C@H]1CC[C@]2(C)C[C@@H]3C(C)=CC(=O)[C@H]3/C(C=O)=C\C[C@@H]12`?
Answer: IC50 [1]: 2.1 µM; Activity [2]: Active; IC50 [3]: 3.92 µM; microsomal CLint [4]: 14.5 µL/min/mg; selectivity ratio [5]: 0.94; Ratio IC50 [6]: 0.63; remaining at 1 h [7]: 97%; IC50 at 48 h [8]: 3.68 µM; IC50 [9]: 2.48 µM
